Columns and labels:
Assay type in all cases: in vivo
[1] = test system: Echinochloa crus-galli var. formosensis; assay: Test Example 5: herbicidal effect test by soil application in paddy rice (low dose); conditions: Echinochloa crus-galli, soil, 336 h; 7.5 g per 10 ares; applied immediately after sowing, flooded pots; 14 days after application; read-out: weed inhibition rate
Method in brief: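 Dose of 7.5 g a.i. per 10 ares, applied by dropper as diluted emulsifiable concentrate to flooded (~3 cm) paddy pots immediately after sowing seeds at 0–1 cm. Kept in a glass greenhouse; duplicate pots rated at 14 days post-application.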

Digitaria ciliaris [2] = assay: Test Example 7: herbicidal effect test by soil application in upland field (low dose); conditions: Digitaria ciliaris, 7.5 g per 10 ares, sprayed one day after sowing, 14 days after application, read-out: weed inhibition rate
Method in brief: (§1)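 Pre-emergence soil treatment: 7.5 g a.i. per 10 a applied as water-diluted emulsifiable concentrate (100 L/10 a) to soil surface one day post-sowing in alluvial loam. Inhibition (%) assessed at 14 days, duplicate pots per concentration.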

Echinochloa crus-galli [3] = assay: as above; conditions: Echinochloa crus-galli, 7.5 g per 10 ares, sprayed one day after sowing, 14 days after application, read-out: weed inhibition rate
Method in brief: as §1

Echinochloa crus-galli [4] = assay: Test Example 4: herbicidal effect test by stem and leaf treatment in upland field; conditions: Echinochloa crus-galli; 120 g per 10 ares; sprayed seven days after sowing, upland soil; 14 days after application; read-out: weed inhibition rate
Monochoria vaginalis = assay: Test Example 6: herbicidal effect test by application during growth period of paddy rice (low dose); conditions: Pontederia vaginalis; 7.5 g per 10 ares; applied seven days after sowing, flooded pots; 14 days after application; read-out: weed inhibition rate
Method in brief: (§2)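 Puddled, fertilised paddy soil was sown with 30 seeds per species and flooded to about 3 cm. After 7 days in a glass greenhouse, the diluted emulsifiable concentrate went into the water by dropper at 7.5 g/10 a. Effect scored at 14 days.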

[5] = test system: Echinochloa crus-galli var. formosensis; assay: as above; conditions: Echinochloa crus-galli; 7.5 g per 10 ares; applied seven days after sowing, flooded pots; 14 days after application; read-out: weed inhibition rate
Method in brief: as §2

Digitaria ciliaris [6] = assay: Test Example 3: herbicidal effect test by soil application in upland field; conditions: Digitaria ciliaris, 120 g per 10 ares, sprayed one day after sowing, 14 days after application, read-out: weed inhibition rate
Method in brief: (§3)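 Weed inhibition (%) was assessed 14 days after treatment, in duplicate per concentration group. Seeds had been mixed into the upper 1 cm of upland alluvial loam, and the soil surface was sprayed one day later with the diluted emulsifiable concentrate at 120 g active ingredient per 10 ares.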

Echinochloa crus-galli [7] = assay: as above; conditions: Echinochloa crus-galli, 120 g per 10 ares, sprayed one day after sowing, 14 days after application, read-out: weed inhibition rate
Method in brief: as §3

CC(C)[C@]12C[C@@H](OCc3ccccc3Br)[C@](C)(CC1=O)O2 [2-13, (1R,4S,5R)-5-((2-bromobenzyl)oxy)-1-isopropyl-4-methyl-7-oxabicyclo[2.2.1]heptan-2-one]
≥ 80%: inhibition at 75 g/ha [1] | inhibition at 75 g/ha (Digitaria ciliaris [2]) | inhibition at 75 g/ha (Echinochloa crus-galli [3]) | inhibition at 1200 g/ha (Echinochloa crus-galli [4]) | inhibition at 75 g/ha (Monochoria vaginalis) | inhibition at 75 g/ha [5] | inhibition at 1200 g/ha (Digitaria ciliaris [6]) | inhibition at 1200 g/ha (Echinochloa crus-galli [7])

CC(C)[C@]12C[C@@H](OCc3ccccc3F)[C@](C)(C[C@H]1C)O2 [1-94, (1S,2R,4R,5R)-2-[(2-fluorophenyl)methoxy]-1,5-dimethyl-4-isopropyl-7-oxabicyclo[2.2.1]heptane]
≥ 80%: inhibition at 75 g/ha [1] | inhibition at 75 g/ha (Digitaria ciliaris [2]) | inhibition at 75 g/ha (Echinochloa crus-galli [3]) | inhibition at 1200 g/ha (Echinochloa crus-galli [4]) | inhibition at 75 g/ha (Monochoria vaginalis) | inhibition at 75 g/ha [5] | inhibition at 1200 g/ha (Digitaria ciliaris [6]) | inhibition at 1200 g/ha (Echinochloa crus-galli [7])

CC(C)[C@]12C[C@@H](OCc3c(F)cccc3Cl)[C@](C)(C[C@@H]1Br)O2 [1-713, (1S,2R,4R,5S)-5-bromo-2-[(2-chloro-6-fluorophenyl)methoxy]-1-methyl-4-isopropyl-7-oxabicyclo[2.2.1]heptane]
≥ 80%: inhibition at 75 g/ha [1] | inhibition at 75 g/ha (Digitaria ciliaris [2]) | inhibition at 75 g/ha (Echinochloa crus-galli [3]) | inhibition at 1200 g/ha (Echinochloa crus-galli [4]) | inhibition at 75 g/ha (Monochoria vaginalis) | inhibition at 75 g/ha [5] | inhibition at 1200 g/ha (Digitaria ciliaris [6]) | inhibition at 1200 g/ha (Echinochloa crus-galli [7])

Cc1cccc(C)c1CO[C@@H]1C[C@@]2(C(C)C)C=C[C@]1(C)O2 [3-3, (1R,4S,5R)-5-[(2,6-dimethylphenyl)methoxy]-4-methyl-1-isopropyl-7-oxabicyclo[2.2.1]hept-2-ene]
≥ 80%: inhibition at 75 g/ha [1] | inhibition at 1200 g/ha (Echinochloa crus-galli [4]) | inhibition at 75 g/ha [5] | inhibition at 1200 g/ha (Digitaria ciliaris [6]) | inhibition at 1200 g/ha (Echinochloa crus-galli [7])

CC(C)[C@]12C[C@@H](OCc3cccc(F)c3)[C@](C)(C[C@@H]1Br)O2 [1-690, (1S,2R,4R,5S)-5-bromo-2-[(3-fluorophenyl)methoxy]-1-methyl-4-isopropyl-7-oxabicyclo[2.2.1]heptane]
≥ 80%: inhibition at 75 g/ha [1] | inhibition at 75 g/ha (Digitaria ciliaris [2]) | inhibition at 75 g/ha (Echinochloa crus-galli [3]) | inhibition at 1200 g/ha (Echinochloa crus-galli [4]) | inhibition at 75 g/ha (Monochoria vaginalis) | inhibition at 75 g/ha [5] | inhibition at 1200 g/ha (Digitaria ciliaris [6]) | inhibition at 1200 g/ha (Echinochloa crus-galli [7])

Cc1cccc(CO[C@@H]2C[C@]3(C(C)C)O[C@@]2(C)C[C@@H]3Br)c1 [1-680, (1S,2R,4R,5S)-5-bromo-1-methyl-2-[(3-methylphenyl)methoxy]-4-isopropyl-7-oxabicyclo[2.2.1]heptane]
≥ 80%: inhibition at 75 g/ha [1] | inhibition at 75 g/ha (Digitaria ciliaris [2]) | inhibition at 75 g/ha (Echinochloa crus-galli [3]) | inhibition at 1200 g/ha (Echinochloa crus-galli [4]) | inhibition at 75 g/ha [5] | inhibition at 1200 g/ha (Digitaria ciliaris [6]) | inhibition at 1200 g/ha (Echinochloa crus-galli [7])

Cc1ccccc1CO[C@@H]1C[C@]2(C(C)C)O[C@@]1(C)C[C@@H]2Br [1-16, (1S,2R,4R,5S)-5-bromo-1-methyl-2-[(2-methylphenyl)methoxy]-4-isopropyl-7-oxabicyclo[2.2.1]heptane]
≥ 80%: inhibition at 75 g/ha [1] | inhibition at 75 g/ha (Echinochloa crus-galli [3]) | inhibition at 1200 g/ha (Echinochloa crus-galli [4]) | inhibition at 75 g/ha [5] | inhibition at 1200 g/ha (Digitaria ciliaris [6]) | inhibition at 1200 g/ha (Echinochloa crus-galli [7])

CC(C)[C@]12C[C@@H](OCc3ccccc3F)[C@](C)(C[C@@H]1OS(=O)(=O)C(F)(F)F)O2 [1-525, (1R,2S,4S,5R)-5-((2-fluorobenzyl)oxy)-1-isopropyl-4-methyl-7-oxabicyclo[2.2.1]heptan-2-yl trifluoromethanesulfonate]
≥ 80%: inhibition at 75 g/ha [1] | inhibition at 75 g/ha (Digitaria ciliaris [2]) | inhibition at 1200 g/ha (Echinochloa crus-galli [4]) | inhibition at 75 g/ha [5] | inhibition at 1200 g/ha (Digitaria ciliaris [6]) | inhibition at 1200 g/ha (Echinochloa crus-galli [7])

CC(C)[C@]12C[C@@H](OCc3cc(F)ccc3F)[C@](C)(CC1=O)O2 [2-18, (1R,4S,5R)-5-((2,5-difluorobenzyl)oxy)-1-isopropyl-4-methyl-7-oxabicyclo[2.2.1]heptan-2-one]
≥ 80%: inhibition at 75 g/ha [1] | inhibition at 75 g/ha (Digitaria ciliaris [2]) | inhibition at 75 g/ha (Echinochloa crus-galli [3]) | inhibition at 1200 g/ha (Echinochloa crus-galli [4]) | inhibition at 75 g/ha [5] | inhibition at 1200 g/ha (Digitaria ciliaris [6]) | inhibition at 1200 g/ha (Echinochloa crus-galli [7])

CC(C)[C@]12C[C@@H](OCc3cccc(Cl)c3)[C@](C)(C[C@@H]1Br)O2 [1-692, (1S,2R,4R,5S)-5-bromo-2-[(3-chlorophenyl)methoxy]-1-methyl-4-isopropyl-7-oxabicyclo[2.2.1]heptane]
≥ 80%: inhibition at 75 g/ha [1] | inhibition at 75 g/ha (Digitaria ciliaris [2]) | inhibition at 75 g/ha (Echinochloa crus-galli [3]) | inhibition at 1200 g/ha (Echinochloa crus-galli [4]) | inhibition at 75 g/ha [5] | inhibition at 1200 g/ha (Digitaria ciliaris [6]) | inhibition at 1200 g/ha (Echinochloa crus-galli [7])

CC(C)[C@]12C[C@@H](OCc3c(Cl)cccc3Cl)[C@](C)(C[C@@H]1Br)O2 [1-712, (1S,2R,4R,5S)-5-bromo-2-[(2,6-dichlorophenyl)methoxy]-1-methyl-4-isopropyl-7-oxabicyclo[2.2.1]heptane]
≥ 80%: inhibition at 75 g/ha [1] | inhibition at 75 g/ha (Digitaria ciliaris [2]) | inhibition at 75 g/ha (Echinochloa crus-galli [3]) | inhibition at 1200 g/ha (Echinochloa crus-galli [4]) | inhibition at 75 g/ha (Monochoria vaginalis) | inhibition at 75 g/ha [5] | inhibition at 1200 g/ha (Digitaria ciliaris [6]) | inhibition at 1200 g/ha (Echinochloa crus-galli [7])

Cc1ccccc1CO[C@@H]1C[C@]2(C(C)C)O[C@@]1(C)C[C@@H]2I [1-741, (1S,2R,4R,5S)-5-iodo-1-methyl-2-[(2-methylphenyl)methoxy]-4-isopropyl-7-oxabicyclo[2.2.1]heptane]
≥ 80%: inhibition at 75 g/ha [1] | inhibition at 75 g/ha (Digitaria ciliaris [2]) | inhibition at 75 g/ha (Echinochloa crus-galli [3]) | inhibition at 1200 g/ha (Echinochloa crus-galli [4]) | inhibition at 75 g/ha [5] | inhibition at 1200 g/ha (Digitaria ciliaris [6]) | inhibition at 1200 g/ha (Echinochloa crus-galli [7])

CC(C)[C@]12C[C@@H](OCc3ccc(Cl)cc3)[C@](C)(C[C@@H]1Br)O2 [1-693, (1S,2R,4R,5S)-5-bromo-2-[(4-chlorophenyl)methoxy]-1-methyl-4-isopropyl-7-oxabicyclo[2.2.1]heptane]
≥ 80%: inhibition at 75 g/ha [1] | inhibition at 75 g/ha (Echinochloa crus-galli [3]) | inhibition at 1200 g/ha (Echinochloa crus-galli [4]) | inhibition at 75 g/ha [5] | inhibition at 1200 g/ha (Digitaria ciliaris [6]) | inhibition at 1200 g/ha (Echinochloa crus-galli [7])

CC(C)[C@]12C[C@@H](OCc3c(Cl)cccc3Cl)[C@](C)(CC1=O)O2 [2-26, (1R,4S,5R)-5-((2,6-dichlorobenzyl)oxy)-1-isopropyl-4-methyl-7-oxabicyclo[2.2.1]heptan-2-one]
≥ 80%: inhibition at 75 g/ha [1] | inhibition at 75 g/ha (Digitaria ciliaris [2]) | inhibition at 75 g/ha (Echinochloa crus-galli [3]) | inhibition at 1200 g/ha (Echinochloa crus-galli [4]) | inhibition at 75 g/ha [5] | inhibition at 1200 g/ha (Digitaria ciliaris [6]) | inhibition at 1200 g/ha (Echinochloa crus-galli [7])

CC(C)[C@]12C[C@@H](OCc3ccc(Cl)cc3Cl)[C@](C)(C[C@@H]1Br)O2 [1-717, (1S,2R,4R,5S)-5-bromo-2-[(2,4-dichlorophenyl)methoxy]-1-methyl-4-isopropyl-7-oxabicyclo[2.2.1]heptane]
≥ 80%: inhibition at 75 g/ha [1] | inhibition at 1200 g/ha (Echinochloa crus-galli [4]) | inhibition at 75 g/ha [5] | inhibition at 1200 g/ha (Digitaria ciliaris [6]) | inhibition at 1200 g/ha (Echinochloa crus-galli [7])

CC(C)[C@]12C[C@@H](OCc3ccccc3F)[C@](C)(C[C@@H]1OCC1CC1)O2 [1-1603, (1S,2R,4R,5S)-5-(cyclopropylmethoxy)-2-[(2-fluorophenyl)methoxy]-1-methyl-4-isopropyl-7-oxabicyclo[2.2.1]heptane]
≥ 80%: inhibition at 75 g/ha [1] | inhibition at 75 g/ha (Digitaria ciliaris [2]) | inhibition at 75 g/ha (Echinochloa crus-galli [3]) | inhibition at 1200 g/ha (Echinochloa crus-galli [4]) | inhibition at 75 g/ha [5] | inhibition at 1200 g/ha (Digitaria ciliaris [6]) | inhibition at 1200 g/ha (Echinochloa crus-galli [7])

CC(C)[C@]12C[C@@H](OCc3cccc(F)c3F)[C@](C)(CC1=O)O2 [2-14, (1R,4S,5R)-5-((2,3-difluorobenzyl)oxy)-1-isopropyl-4-methyl-7-oxabicyclo[2.2.1]heptan-2-one]
≥ 80%: inhibition at 75 g/ha [1] | inhibition at 75 g/ha (Digitaria ciliaris [2]) | inhibition at 75 g/ha (Echinochloa crus-galli [3]) | inhibition at 1200 g/ha (Echinochloa crus-galli [4]) | inhibition at 75 g/ha [5] | inhibition at 1200 g/ha (Digitaria ciliaris [6]) | inhibition at 1200 g/ha (Echinochloa crus-galli [7])

CC(C)CC1C[C@]2(C)O[C@@]1(C(C)C)C[C@H]2OCc1ccccc1F (stereo partly drawn) [1-915, (1S,2R,4R)-2-((2-fluorobenzyl)oxy)-5-isobutyl-4-isopropyl-1-methyl-7-oxabicyclo[2.2.1]heptane]
≥ 80%: inhibition at 75 g/ha [1] | inhibition at 1200 g/ha (Echinochloa crus-galli [4]) | inhibition at 75 g/ha [5] | inhibition at 1200 g/ha (Digitaria ciliaris [6]) | inhibition at 1200 g/ha (Echinochloa crus-galli [7])
